One experiment deals with T1, human TLR7 (Homo sapiens, UniProt Q9NYK1).
T1 construct: host or cells: HEK293-Blue-hTLR7 (HEK293)
T1 sequence (Q9NYK1 27-1049): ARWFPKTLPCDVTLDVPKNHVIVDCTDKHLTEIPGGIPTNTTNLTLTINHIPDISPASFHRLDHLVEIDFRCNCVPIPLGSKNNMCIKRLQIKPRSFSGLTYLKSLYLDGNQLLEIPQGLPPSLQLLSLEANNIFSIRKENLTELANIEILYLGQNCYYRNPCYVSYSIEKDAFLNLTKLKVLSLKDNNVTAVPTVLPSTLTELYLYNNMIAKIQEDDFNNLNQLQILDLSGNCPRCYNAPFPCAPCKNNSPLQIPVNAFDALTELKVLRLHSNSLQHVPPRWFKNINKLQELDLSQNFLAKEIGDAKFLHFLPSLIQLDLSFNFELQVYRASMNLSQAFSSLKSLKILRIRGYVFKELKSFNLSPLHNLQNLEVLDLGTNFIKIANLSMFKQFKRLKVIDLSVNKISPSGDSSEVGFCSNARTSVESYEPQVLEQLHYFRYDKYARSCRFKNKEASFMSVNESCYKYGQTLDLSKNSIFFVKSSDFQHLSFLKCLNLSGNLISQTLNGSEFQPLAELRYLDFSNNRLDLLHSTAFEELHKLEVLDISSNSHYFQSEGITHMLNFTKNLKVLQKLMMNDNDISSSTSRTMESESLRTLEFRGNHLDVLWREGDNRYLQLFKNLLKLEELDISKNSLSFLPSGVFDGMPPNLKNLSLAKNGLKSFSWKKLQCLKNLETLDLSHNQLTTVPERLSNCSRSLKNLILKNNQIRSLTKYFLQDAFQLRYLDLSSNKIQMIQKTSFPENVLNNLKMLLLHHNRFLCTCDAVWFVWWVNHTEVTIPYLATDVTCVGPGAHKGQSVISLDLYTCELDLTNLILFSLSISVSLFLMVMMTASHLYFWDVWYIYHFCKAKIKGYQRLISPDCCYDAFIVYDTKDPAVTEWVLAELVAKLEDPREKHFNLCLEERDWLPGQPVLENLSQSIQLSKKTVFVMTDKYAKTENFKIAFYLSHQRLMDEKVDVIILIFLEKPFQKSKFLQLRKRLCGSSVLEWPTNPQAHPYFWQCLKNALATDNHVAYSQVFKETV
Nature of the experiment: HEK293-Blue-hTLR7 cells assay (NF-κB SEAP reporter). The conditions noted are these: 20 hrs incubation, agonism. It counts as cell-based. From the text: A stable HEK293-Blue-hTLR7 cell line was purchased from InvivoGen (Cat. #: hkb-htlr7, San Diego, California, USA). These cells were designed for studying the stimulation of human TLR7 by monitoring the activation of NF-κB. A SEAP (secreted embryonic alkaline phosphatase) reporter gene was placed under the control of the IFN-β minimal promoter fused to five NF-κB and AP-1-binding sites. The SEAP was induced by activating NF-κB and AP-1 via stimulating HEK-Blue hTLR7 cells with TLR7 ligands. Therefore the reporter expression was regulated by the NF-κB promoter upon stimulation of human TLR7 for 20 hrs. The cell culture supernatant SEAP reporter activity was determined using QUANTI-Blue™ kit (Cat. #: rep-qbl, Invivogen, San Diego, Ca, USA) at a wavelength of 650 nm, a detection medium that turns purple or blue in the presence of alkaline phosphatase.
HEK293-Blue-hTLR7 cells were incubated at a density of 250,000˜450,000 cells/mL in a volume of 180 μL in a 96-well plate in Dulbecco's Modified Eagle's medium (DMEM) containing 4.5 g/L glucose, 100 U/mL penicillin, 100 μg/mL streptomycin, 100 μg/mL Normocin, 1% (V/V) GlutaMAX™, 10% (V/V) heat-inactivated fetal bovine serum for 24 hrs. Then the HEK293-Blue-hTLR-7 cells were incubated with addition of 20 μL test compound in a serial dilution in the presence of final DMSO at 1% and perform incubation under 37° C. in a CO2 incubator for 20 hrs. Then 20 μL of the supernatant from each well was incubated with 180 μL Quanti-blue substrate solution at 37° C. for 1 hours and the absorbance was read at 620-655 nm using a spectrophotometer. The signalling pathway that TLR7 activation leads to downstream NF-κB activation has been widely accepted, and therefore similar reporter assay was also widely used for evaluating TLR7 agonist (Tsuneyasu Kaisho and Takashi Tanaka, Trends in Immunology, Volume 29, Issue 7, July 2008, […]; Hiroaki Hemmi et al, Nature Immunology 3, 196-200 (2002)).

Another experiment has as its target T2, human TLR8 (Homo sapiens, UniProt Q9NR97).
T2 construct: host or cells: HEK293-Blue-hTLR8 (HEK293)
T2 sequence (Q9NR97 27-1041): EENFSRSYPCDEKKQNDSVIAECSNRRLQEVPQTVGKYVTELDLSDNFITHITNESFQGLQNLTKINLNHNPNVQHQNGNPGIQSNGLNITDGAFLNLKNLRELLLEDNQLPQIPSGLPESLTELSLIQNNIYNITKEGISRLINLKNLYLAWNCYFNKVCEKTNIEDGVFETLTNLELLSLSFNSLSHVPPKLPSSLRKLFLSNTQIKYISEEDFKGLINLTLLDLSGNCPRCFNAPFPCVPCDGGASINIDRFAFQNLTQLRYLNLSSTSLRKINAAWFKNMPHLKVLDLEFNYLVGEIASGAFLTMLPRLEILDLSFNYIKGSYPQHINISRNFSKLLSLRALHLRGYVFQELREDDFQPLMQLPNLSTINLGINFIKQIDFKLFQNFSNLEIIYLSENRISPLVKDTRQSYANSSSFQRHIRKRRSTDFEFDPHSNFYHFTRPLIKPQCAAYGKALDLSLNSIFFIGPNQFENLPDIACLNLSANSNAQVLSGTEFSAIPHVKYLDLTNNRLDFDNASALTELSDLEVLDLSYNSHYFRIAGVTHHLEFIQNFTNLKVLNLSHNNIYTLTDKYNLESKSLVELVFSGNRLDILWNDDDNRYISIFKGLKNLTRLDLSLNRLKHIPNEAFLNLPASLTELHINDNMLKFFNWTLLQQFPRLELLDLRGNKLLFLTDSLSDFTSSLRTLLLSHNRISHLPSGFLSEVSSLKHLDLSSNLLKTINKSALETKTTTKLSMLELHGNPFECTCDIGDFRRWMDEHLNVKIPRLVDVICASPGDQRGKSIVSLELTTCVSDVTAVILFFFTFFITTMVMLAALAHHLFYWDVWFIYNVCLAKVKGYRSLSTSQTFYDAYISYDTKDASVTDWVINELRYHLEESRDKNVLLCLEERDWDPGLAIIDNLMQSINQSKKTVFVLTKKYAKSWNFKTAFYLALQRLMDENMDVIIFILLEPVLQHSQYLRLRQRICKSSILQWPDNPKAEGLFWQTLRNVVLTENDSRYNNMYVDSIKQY
Put plainly: HEK293-Blue-hTLR8 cells assay (NF-κB SEAP reporter). It counts as cell-based. The conditions noted are these: 20 hours incubation, agonism. From the text: A stable HEK293-Blue-hTLR8 cell line was purchased from InvivoGen (Cat. #: hkb-htlr8, San Diego, California, USA). These cells were designed for studying the stimulation of human TLR8 by monitoring the activation of NF-κB. A SEAP (secreted embryonic alkaline phosphatase) reporter gene was placed under the control of the IFN-β minimal promoter fused to five NF-κB and AP-1-binding sites. The SEAP was induced by activating NF-κB and AP-1 via stimulating HEK-Blue hTLR8 cells with TLR8 ligands. Therefore the reporter expression was regulated by the NF-κB promoter upon stimulation of human TLR8. The cell culture supernatant SEAP reporter activity was determined using QUANTI-Blue™ kit (Cat. #: rep-qbl, Invivogen, San Diego, Ca, USA) at a wavelength of 650 nm, a detection medium that turns purple to blue in the presence of alkaline phosphatase.
HEK293-Blue-hTLR8 cells were incubated at a density of 250,000-450,000 cells/mL in a volume of 180 μL in a 96-well plate in Dulbecco's Modified Eagle's medium (DMEM) containing 4.5 g/L glucose, 100 U/mL penicillin, 100 μg/mL streptomycin, 100 μg/mL Normocin, 1% (V/V) GlutaMAX™, 10% (v/v) heat-inactivated fetal bovine serum for 24 hours. Then the HEK293-Blue-hTLR8 cells were incubated with addition of 20 μL test compound in a serial dilution in the presence of final DMSO at 1% and perform incubation under 37° C. in a CO2 incubator for 20 hours. Then 20 μL of the supernatant from each well was incubated with 180 μL Quanti-blue substrate solution at 37° C. for 1 hours and the absorbance was read at 620-655 nm using a spectrophotometer. The signalling pathway that TLR8 activation leads to downstream NF-κB activation has been widely accepted, and therefore similar reporter assay was also widely used for evaluating TLR8 agonist.

We go through nine compounds from patent US20260070906A1, “IMIDAZO[4,5-C]PYRIDINE COMPOUNDS FOR THE TREATMENT OF CANCER” (Hoffmann-La Roche Inc., priority 2023, published 2026).

pEC50: −log10 of the molar value.

As a reminder, the pEC50 is −log10 of the EC50, conventionally taken in molar units. As to `CCOCc1nc2c(N)nc(C)c(Sc3cc(O)c(CN(C)C)cc3C)c2[nH]1` [Example 25, 5-[[4-amino-2-(ethoxymethyl)-6-methyl-1H-imidazo[4,5-c]pyridin-7-yl]sulfanyl]-2-[(dimethylamino)methyl]-4-methyl-phenol], the pEC50 on human TLR7 is 7.48; at human TLR8 it was 7.21.
In the case of `CCOCc1nc2c(N)nc(C)c(Sc3ccc(CN4CCCC4)cc3N)c2[nH]1` [Example 26, 7-[2-amino-4-(pyrrolidin-1-ylmethyl)phenyl]sulfanyl-2-(ethoxymethyl)-6-methyl-1H-imidazo[4,5-c]pyridin-4-amine], the pEC50 on human TLR7 is 7.68; at human TLR8 it was 7.82.
For `CCOCc1nc2c(N)nc(C)c(Sc3ccc(CN4CCN(C)CC4)cc3N)c2[nH]1` [Example 27, 7-[2-amino-4-[(4-methylpiperazin-1-yl)methyl]phenyl]sulfanyl-2-(ethoxymethyl)-6-methyl-1H-imidazo[4,5-c]pyridin-4-amine] the same measures were 7.41 and 7.28.
For `CCOCc1nc2c(N)nc(C)c(Sc3ccc(CN4CCN(C)CC4)c(N)c3)c2[nH]1` [Example 28, 7-[3-amino-4-[(4-methylpiperazin-1-yl)methyl]phenyl]sulfanyl-2-(ethoxymethyl)-6-methyl-1H-imidazo[4,5-c]pyridin-4-amine] the same measures were 8.00 and 7.36.
As to `CCOCc1nc2c(N)nc(C)c(Sc3c(N)cc(CN4CCN(C)CC4)cc3OC)c2[nH]1` [Example 29, 7-[2-amino-6-methoxy-4-[(4-methylpiperazin-1-yl)methyl]phenyl]sulfanyl-2-(ethoxymethyl)-6-methyl-1H-imidazo[4,5-c]pyridin-4-amine], the pEC50 is 8.22 on human TLR7 and 7.36 at human TLR8.
On the same counts, the results for `CCOCc1nc2c(N)nc(C)c(Sc3ccc(NCCN(C)C)nc3)c2[nH]1` [Example 30, N-[5-[[4-amino-2-(ethoxymethyl)-6-methyl-1H-imidazo[4,5-c]pyridin-7-yl]sulfanyl]-2-pyridyl]-N′,N′-dimethyl-ethane-1,2-diamine] are 7.89 and 7.96.
With `CCOCc1nc2c(N)nc(C)c(Sc3ccc(CCN(C)C)cc3)c2[nH]1` [Example 31, 7-[4-[2-(dimethylamino)ethyl]phenyl]sulfanyl-2-(ethoxymethyl)-6-methyl-1H-imidazo[4,5-c]pyridin-4-amine], the pEC50 at human TLR7 is 7.74; on human TLR8, 8.30.
For the compound `CCOCc1nc2c(N)nc(C)c(Sc3cc4c(cc3O)CN(C)CC4)c2[nH]1` [Example 32, 6-[[4-amino-2-(ethoxymethyl)-6-methyl-1H-imidazo[4,5-c]pyridin-7-yl]sulfanyl]-2-methyl-3,4-dihydro-1H-isoquinolin-7-ol], the pEC50 on human TLR7 is 7.68; at human TLR8 it was 7.27.
Consider `CCCCc1nc2c(N)nnc(N(C)Cc3ccc(CN(C)C)cc3)c2n1C` [SAN-43, reference compound], for which, on human TLR7, the pEC50 is 6.51; the “HEK293-hTLR7 EC50” value was “did not show comparable TLR7 and TLR8 activities”. Besides, on human TLR8, the negative-log EC50 (pEC50) was 7.43; the “HEK293-hTLR8 EC50” value was “did not show comparable TLR7 and TLR8 activities”.
